Measured values: patent US11066396B2 (priority 2016, dated 2021)

What was measured:
HDAC1 = HDAC1 (Homo sapiens (Human), UniProt Q13547); details: read-out: HDAC1 IC50
HDAC8 = HDAC8 (Homo sapiens (Human), UniProt Q9BY41); details: read-out: HDAC8 IC50
HDAC8, sequence (Q9BY41 whole entry): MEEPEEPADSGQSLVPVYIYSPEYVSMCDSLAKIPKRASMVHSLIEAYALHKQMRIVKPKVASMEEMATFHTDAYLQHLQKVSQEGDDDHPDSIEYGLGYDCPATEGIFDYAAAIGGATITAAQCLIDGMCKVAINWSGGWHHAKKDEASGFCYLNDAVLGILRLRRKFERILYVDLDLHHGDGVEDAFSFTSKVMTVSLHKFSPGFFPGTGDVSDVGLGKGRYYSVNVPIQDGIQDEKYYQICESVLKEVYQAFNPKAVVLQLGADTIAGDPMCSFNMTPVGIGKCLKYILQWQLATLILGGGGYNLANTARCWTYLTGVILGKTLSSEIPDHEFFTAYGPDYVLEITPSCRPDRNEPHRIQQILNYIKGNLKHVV

HDAC1, sequence (Q13547 whole entry): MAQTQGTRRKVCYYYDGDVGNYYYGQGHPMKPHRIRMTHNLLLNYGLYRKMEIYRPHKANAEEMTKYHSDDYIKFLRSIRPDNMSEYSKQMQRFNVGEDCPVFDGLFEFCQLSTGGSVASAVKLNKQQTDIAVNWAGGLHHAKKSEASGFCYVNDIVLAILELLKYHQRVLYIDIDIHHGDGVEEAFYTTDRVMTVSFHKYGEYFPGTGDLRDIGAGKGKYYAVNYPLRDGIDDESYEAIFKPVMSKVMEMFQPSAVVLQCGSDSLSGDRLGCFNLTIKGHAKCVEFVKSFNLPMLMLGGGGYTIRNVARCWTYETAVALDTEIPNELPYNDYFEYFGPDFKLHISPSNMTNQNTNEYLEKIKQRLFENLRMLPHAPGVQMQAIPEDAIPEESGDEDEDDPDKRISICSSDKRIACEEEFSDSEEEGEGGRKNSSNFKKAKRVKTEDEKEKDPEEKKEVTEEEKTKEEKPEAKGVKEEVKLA

| SMILES | IC50 (HDAC1) [nM] | IC50 (HDAC8) [nM] |
| --- | --- | --- |
| CC(C)(C)OC(=O)N1CC(=O)N(c2ccc(-c3noc(C(F)(F)F)n3)cc2)[C@H](c2ccccc2)C1 (racemic) [Example 163, tert-butyl 3-oxo-5-phenyl-4-(4-(5-(trifluoromethyl)-1,2,4-oxadiazol-3-yl)phenyl)piperazine-1-carboxylate] | 1700 | 4300 |
| O=C1CC[C@@H](c2nc3ccccc3o2)N1c1ccc(-c2noc(C(F)(F)F)n2)cc1F [Example 22, (S)-5-(Benzo[d]oxazol-2-yl)-1-(2-fluoro-4-(5-(trifluoromethyl)-1,2,4-oxadiazol-3-yl)phenyl)pyrrolidin-2-one] | 32 | 350 |
| O=C(CN1CCS(=O)(=O)CC1)N(Cc1ccc(-c2noc(C(F)(F)F)n2)cc1)c1cccc(C(F)(F)F)c1 [Example 81, 2-(1,1-dioxidothiomorpholino)-N-(4-(5-(trifluoromethyl)-1,2,4-oxadiazol-3-yl)benzyl)-N-(3-(trifluoromethyl)phenyl)acetamide] | 1300 | 4900 |
| CC(C)c1ncc(C(=O)N(Cc2ccc(-c3noc(C(F)(F)F)n3)cn2)c2cccc(F)c2)cn1 [Example 53, N-(3-fluorophenyl)-2-isopropyl-N-((5-(5-(trifluoromethyl)-1,2,4-oxadiazol-3-yl)pyridin-2-yl)methyl)pyrimidine-5-carboxamide] | 170 | 1800 |
| Cc1cc(CC(=O)N(Cc2ccc(-c3noc(C(F)(F)F)n3)cn2)c2cccc(F)c2)on1 [Example 59, N-(3-fluorophenyl)-2-(3-methylisoxazol-5-yl)-N-((5-(5-(trifluoromethyl)-1,2,4-oxadiazol-3-yl)pyridin-2-yl)methyl)acetamide] | 210 | 1500 |
| CC(C)N1CCC(NCc2ccc(-c3noc(C(F)(F)F)n3)cn2)C1=O (racemic) [Example 435, 1-(1-methylethyl)-3-[({5-[5-(trifluoromethyl)-1,2,4-oxadiazol-3-yl]pyridin-2-yl}methyl)amino]pyrrolidin-2-one] | 4400 | 4600 |
| O=C1CCC(c2ccc(Cl)cc2)N1c1ccc(-c2noc(C(F)(F)F)n2)cc1F (centres unmarked) [Example 119, 5-(4-chlorophenyl)-1-(2-fluoro-4-(5-(trifluoromethyl)-1,2,4-oxadiazol-3-yl)phenyl)pyrrolidin-2-one] | 720 | 1300 |
| O=C(CC1CNCCO1)N(Cc1ccc(-c2noc(C(F)(F)F)n2)cc1)c1cccc(C(F)(F)F)c1 (racemic) [Example 82, 2-(morpholin-2-yl)-N-(4-(5-(trifluoromethyl)-1,2,4-oxadiazol-3-yl)benzyl)-N-(3-(trifluoromethyl)phenyl)acetamide] | 860 | 2500 |
| FC(F)(F)c1nc(-c2ccc(CNc3[nH]nc4ccccc34)nc2)no1 [Example 430, N-({5-[5-(trifluoromethyl)-1,2,4-oxadiazol-3-yl]pyridin-2-yl}methyl)-2H-indazol-3-amine] | 530 | 2000 |
| Cc1ccc(C(=O)N(Cc2ccc(-c3noc(C(F)(F)F)n3)cn2)c2cccc(F)c2)nn1 [Example 400, N-(3-fluorophenyl)-6-methyl-N-({5-[5-(trifluoromethyl)-1,2,4-oxadiazol-3-yl]pyridin-2-yl}methyl)pyridazine-3-carboxamide] | 260 | 3200 |
| O=C1CC[C@@H](c2nc(-c3cccnc3)no2)N1c1ccc(-c2noc(C(F)(F)F)n2)cc1 [Example 113, (S)-5-(3-(pyridin-3-yl)-1,2,4-oxadiazol-5-yl)-1-(4-(5-(trifluoromethyl)-1,2,4-oxadiazol-3-yl)phenyl)pyrrolidin-2-one] | 130 | 410 |
| O=C(C1CCCS(=O)(=O)C1)N(Cc1ccc(-c2noc(C(F)(F)F)n2)cn1)c1cccc(F)c1 (racemic) [Example 405, N-(3-fluorophenyl)-N-({5-[5-(trifluoromethyl)-1,2,4-oxadiazol-3-yl]pyridin-2-yl}methyl)tetrahydro-2H-thiopyran-3-carboxamide 1,1-dioxide] | 220 | 1600 |
| CNC(=O)c1ccccc1NCc1ccc(-c2noc(C(F)(F)F)n2)cn1 [Example 444, N-methyl-2-[({5-[5-(trifluoromethyl)-1,2,4-oxadiazol-3-yl]pyridin-2-yl}methyl)amino]benzamide] | 350 | 2500 |
| Cc1ncc(CC(=O)N(Cc2ccc(-c3noc(C(F)(F)F)n3)cn2)c2cccc(F)c2)s1 [Example 394, N-(3-fluorophenyl)-2-(2-methyl-1,3-thiazol-5-yl)-N-({5-[5-(trifluoromethyl)-1,2,4-oxadiazol-3-yl]pyridin-2-yl}methyl)acetamide] | 730 | 2400 |
| CN(C)CC(=O)N(Cc1ccc(-c2noc(C(F)(F)F)n2)cc1)c1cccc(C(F)(F)F)c1 [Example 83, 2-(dimethylamino)-N-(4-(5-(trifluoromethyl)-1,2,4-oxadiazol-3-yl)benzyl)-N-(3-(trifluoromethyl)phenyl)acetamide] | 1200 | 3500 |
| CNc1ccccc1NC(=O)[C@@H]1CCC(=O)N1c1ccc(-c2noc(C(F)(F)F)n2)cc1 [Example 109, (S)-N-(2-(methylamino)phenyl)-5-oxo-1-(4-(5-(trifluoromethyl)-1,2,4-oxadiazol-3-yl)phenyl)pyrrolidine-2-carboxamide] | 1000 | 2300 |

| SMILES | IC50 (HDAC1) [nM] | IC50 (HDAC8) [nM] |
| --- | --- | --- |
| O=C1CCC(c2ccccc2)N1c1ccc(-c2noc(C(F)(F)F)n2)cc1 (centres unmarked) [Example 115, 5-phenyl-1-(4-(5-(trifluoromethyl)-1,2,4-oxadiazol-3-yl)phenyl)pyrrolidin-2-one] | 1000 | 920 |
| Cc1cccc(N2CCC(NCc3ccc(-c4noc(C(F)(F)F)n4)cc3)CC2)c1 [Example 349, 1-(3-methylphenyl)-N-({4-[5-(trifluoromethyl)-1,2,4-oxadiazol-3-yl]phenyl}methyl)piperidin-4-amine] | 730 | 1400 |
| CC(=O)N1CCN(CC(=O)N(Cc2ccc(-c3noc(C(F)(F)F)n3)cc2)c2cccc(C(F)(F)F)c2)CC1 [Example 69, 2-(4-acetylpiperazin-1-yl)-N-(4-(5-(trifluoromethyl)-1,2,4-oxadiazol-3-yl)benzyl)-N-(3-(trifluoromethyl)phenyl)acetamide] | 1300 | 2600 |
| FC(F)(F)c1nc(-c2ccc(N3CCOC[C@@H]3c3ccccc3)nc2)no1 [Example 141, (S)-3-phenyl-4-(5-(5-(trifluoromethyl)-1,2,4-oxadiazol-3-yl)pyridin-2-yl)morpholine] | 350 | 1800 |
| O=c1ccc2ccc(C(F)(F)F)cc2n1Cc1ccc(-c2noc(C(F)(F)F)n2)cn1 [Example 388, 7-(trifluoromethyl)-1-({5-[5-(trifluoromethyl)-1,2,4-oxadiazol-3-yl]pyridin-2-yl}methyl)quinolin-2(1H)-one] | 280 | 4900 |
| CC(Cn1cncn1)C(=O)N(Cc1ccc(-c2noc(C(F)(F)F)n2)cc1)c1cccc(C(F)(F)F)c1 (racemic) [Example 79, 2-methyl-3-(1H-1,2,4-triazol-1-yl)-N-(4-(5-(trifluoromethyl)-1,2,4-oxadiazol-3-yl)benzyl)-N-(3-(trifluoromethyl)phenyl)propanamide] | 1300 | 3400 |
| O=C1CC[C@@H](CO)N1c1ccc(-c2noc(C(F)(F)F)n2)c(F)c1 [Example 188, (S)-1-(3-Fluoro-4-(5-(trifluoromethyl)-1,2,4-oxadiazol-3-yl)phenyl)-5-(hydroxymethyl)pyrrolidin-2-one] | 380 | 38 |
| O=C1CC(NCc2ccc(-c3noc(C(F)(F)F)n3)cn2)CCN1 (racemic) [Example 437, 4-[({5-[5-(trifluoromethyl)-1,2,4-oxadiazol-3-yl]pyridin-2-yl}methyl)amino]piperidin-2-one] | 5400 | 5100 |
| O=C1COC[C@@H](c2ccccc2)N1c1cnc(-c2noc(C(F)(F)F)n2)cn1 [Example 164, (R)-5-phenyl-4-(5-(5-(trifluoromethyl)-1,2,4-oxadiazol-3-yl)pyrazin-2-yl)morpholin-3-one] | 2900 | 6100 |
| FC(F)(F)c1nc(-c2ccc(CNC3CCc4ncccc4C3)nc2)no1 (racemic) [Example 371, N-({5-[5-(trifluoromethyl)-1,2,4-oxadiazol-3-yl]pyridin-2-yl}methyl)-5,6,7,8-tetrahydroquinolin-6-amine] | 450 | 1600 |
| FC(F)(F)c1nc(-c2ccc(CNc3cnsc3)nc2)no1 [Example 433, N-({5-[5-(trifluoromethyl)-1,2,4-oxadiazol-3-yl]pyridin-2-yl}methyl)isothiazol-4-amine] | 890 | 900 |
| O=C1CC[C@@H](CN2CCOCC2)N1c1ccc(-c2noc(C(F)(F)F)n2)c(F)c1 [Example 189, (S)-1-(3-Fluoro-4-(5-(trifluoromethyl)-1,2,4-oxadiazol-3-yl)phenyl)-5-(morpholinomethyl)pyrrolidin-2-one] | 15000 | 6900 |
| CS(=O)(=O)N1CC(C(=O)N(Cc2ccc(-c3noc(C(F)(F)F)n3)cn2)c2cccc(F)c2)C1 [Example 404, N-(3-fluorophenyl)-1-(methylsulfonyl)-N-({5-[5-(trifluoromethyl)-1,2,4-oxadiazol-3-yl]pyridin-2-yl}methyl)azetidine-3-carboxamide] | 280 | 1300 |
| O=C1NCCc2ccccc2C1NCc1ccc(-c2noc(C(F)(F)F)n2)cn1 (racemic) [Example 373, 1-[({5-[5-(trifluoromethyl)-1,2,4-oxadiazol-3-yl]pyridin-2-yl}methyl)amino]-1,3,4,5-tetrahydro-2H-3-benzazepin-2-one] | 1300 | 2800 |
| FC(F)(F)c1nc(-c2ccc(CNc3ccc4c[nH]nc4c3)cc2)no1 [Example 411, N-{4-[5-(trifluoromethyl)-1,2,4-oxadiazol-3-yl]benzyl}-2H-indazol-6-amine] | 1000 | 2200 |
